How the values were obtained:
stromal cells = assay: Real Time PCR for gene expression quantification in cultured cells; type: cell-based; conditions: 1 uM and 0.1 uM versus untreated
Procedure: Tissue was gently minced into small pieces (1 to 2 mm^3) and incubated at 37° C. for 1 h with 0.1% type A collagenase. At the end of the incubation, single stromal cells were separated from large clumps of epithelium by a 10 min. period of differential sedimentation at unity gravity. The top 8 ml of medium, containing predominantly stromal cells, were then slowly removed and the cells were collected by centrifugation. The stromal-enriched fraction was washed twice in culture medium and allowed to adhere selectively to tissue culture dishes for 15 min.
Thereafter, nonattached epithelial cells still present were removed and a purified stromal preparation was obtained on the surface of the culture dishes.
Cells were incubated at 37° C. in 3% FBS DMEM (without Compound A, with Compound A at 1 uM concentration or with Compound A at 0.1 uM concentration) or 10% FBS DMEM (without Compound A, with Compound A at 1 uM concentration or with Compound A at 0.1 uM concentration). After 4 or 8 hours of incubation cells were trypsinized and collected as a cell pellet.
For total RNA extraction it was used the RNeasy Mini Kit QIAGEN (cat. no. 74106) briefly described below.
Cells were distrupted by addition of Buffer RLT and the lysate was loaded onto a QlAshredder spin column (QIAGEN cat. no. 79656) placed in a 2 ml collection tube and centrifuged for 2 min at maximum speed. A volume of 70% ethanol was added to the homogenized lysate. The sample was loaded on an RNeasy mini column placed in a 2 ml collection tube and centrifuged for 15 sec at >10000 rpm. The RNA bound to the column was digested with a DNase treatment. The column was washed with Buffer RW1 and centrifuged for 15 sec at >10000 rpm. The sample was incubated with DNase I mix (RNase-Free Dnase Set QIAGEN cat. no. 79254) at room temperature for 15 min. […] RNA concentration was evaluated by NanoDrop Spectrophotometer […]
Real Time PCR was performed by using ABI PRISM 7000 Sequence Detection System (Applied Biosystems). […] The genes analysed included Vitamin D Receptor (VDR), Cytochrome P450 (CYP24), Vascular Endothelial Growth Factor (VEGF), Estrogen Receptor alpha (ERα), Estrogen Receptor beta (ERβ), Progesterone Receptor (PR), Aromatase (CYP19), Cyclooxygenase type 2 (COX-2), Interleukin-8 (IL-8), Tumor Necrosis Factor alpha (TNF α), Caspase-3 (CASP3), Caspase-6 (CASP6), Ki-67 Nuclear Antigen (Ki-67).
Samples were incubated 2 min at 50° C., 10 min at 95° C. and amplified for 40 cycles at 95° C. for 15 sec (denaturation) and at 60° C. for 1 min (annealing/extension). The amount of gene expression was normalized to rRNA 18S gene expression and the comparative CT methods (User Bulletin #2 ABI PRISM 7000 Sequence Detection System) was used for relative quantitation.

peritoneal macrophages = assay: ELISA quantification of cytokine produced by peritoneal macrophages; type: in vivo, mice
Procedure: Peritoneal cells were recovered two weeks after unterus transfer in cold PBS, 2 mM EDTA, by peritoneal lavage of treated (Compound A at 100 ug/kg) and untreated (vehicle only) animals prepared according to the procedure described previously in Examples 1 to 3 (pool of 5 mice per group). Peritoneal macrophages were counted directly after collection using Turk reagent, washed, and placed into culture with RPMI/glutamax 5% FC I, pen/strep, Na pyruvate. After 2 hr at 37° C. the non adherent cells were removed and the macrophages were cultured for a further 48 hr. The supernatant was harvested and cytokines (TNF-alpha, IL1-alpha, IL1-beta, IL6, MIP-2 and VEGF) were quantified using a specific ELISA (R&D System DuoSet). All ELISA determinations were performed in duplicate on the undiluted sample. The total cells number plated was assessed by CyQuant test and values of protein production were normalized to cell number.

## C=C1/C(=C\C=C2/CCC[C@]3(C)C([C@@H](C)C/C=C/C(O)(CC)CC)=CC[C@@H]23)C[C@@H](O)C[C@@H]1F [Compound A, 1-alpha-fluoro-25-hydroxy-16,23E-diene-26,27-bishomo-20-epi-cholecalciferol]
Stromal cells; FIG. 3A
  VDR expression: Little or no change
Stromal cells; FIG. 3B
  VEGF expression: Little or no change
Stromal cells; FIG. 3C
  Cyp24 expression: marked upregulation
Stromal cells; FIG. 3D
  Cyp19 expression: Little or no change
Peritoneal macrophages; 100 ug/kg versus vehicle, macrophages recovered two weeks after uterus transfer, cultured 48 hr, FIG. 11
  inflammatory cytokine and VEGF production (TNF-alpha, IL1-alpha, IL1-beta, IL6, MIP-2, VEGF): dramatically reduced
Peritoneal macrophages; macrophages of treated animals, data not shown
  cytokine production after re-activation in vitro with LPS: still capable of producing the same cytokines
